Measurements published in US20260250320A1, “LIPIDATED PEPTIDE INHIBITORS OF INTERLEUKIN-23 RECEPTOR” (Janssen Pharmaceutica NV, priority 2023, published 2026).
*1 amine or outer side, *2 acyl side, *3 side chain or, on linkers, in order; H or OH if unused. Where a SMILES comes first, the peptide text is derived from it. Bridges are numbered along the chain shown (N, C = ends). Side-chain parts run from the residue outwards. [ ]: non-standard residue; d: D form. The star is where a group is joined. Me3N+(CH2)2O(CH2)2O(CH2)2CO = C[N+](C)(C)CCOCCOCCC(=O)*; CH2CH2OCH2CH2OCH2CH2NMe3+ = C[N+](C)(C)CCOCCOCC*; Trp(7-Me) = Cc1cccc2c(C[C@H](N)C(=O)O)c[nH]c12; C18 diacid = O=C(O)CCCCCCCCCCCCCCCCC(=O)*; X6 = CN(CC[C@H](N[*:1])C(=O)[*:2])[*:3]; γGlu = O=C(O)[C@H](CCC(=O)[*:2])N[*:1]; 2Nal = N[C@@H](Cc1ccc2ccccc2c1)C(=O)O; AEF = NCCOc1ccc(C[C@H](N)C(=O)O)cc1; X2 = C[N+](C)(C)C[C@@H](CC(=O)O)N*; 3Pal = N[C@@H](Cc1cccnc1)C(=O)O; Lys(Me) = CNCCCC[C@H](N)C(=O)O; Pen = CC(C)(S)[C@H](N)C(=O)O; Suc = O=C(CCC(=O)[*:2])[*:1]; Thp = NC1(C(=O)O)CCOCC1; X1 = C[N+](C)(C)CCCCC*; AEEA = NCCOCCOCC(=O)O; Sar = CNCC(=O)O

Experiments:
IL-23R = biological target: T1, IL-23R (Homo sapiens, UniProt Q5VWK5); test: IL23R Reporter Assay; format: cell-based; conditions: HEK293 cells containing IL-23R, IL-12Rβ1 and STAT-inducible firefly luciferase reporter; 10 ng/mL IL-23 (EC90); 5 h
T1 construct: HEK293 cells containing IL-23R, IL-12Rβ1 and a firefly luciferase reporter gene driven by a STAT-inducible promoter (Promega); host or cells: HEK293
T1 sequence (Q5VWK5 24-629): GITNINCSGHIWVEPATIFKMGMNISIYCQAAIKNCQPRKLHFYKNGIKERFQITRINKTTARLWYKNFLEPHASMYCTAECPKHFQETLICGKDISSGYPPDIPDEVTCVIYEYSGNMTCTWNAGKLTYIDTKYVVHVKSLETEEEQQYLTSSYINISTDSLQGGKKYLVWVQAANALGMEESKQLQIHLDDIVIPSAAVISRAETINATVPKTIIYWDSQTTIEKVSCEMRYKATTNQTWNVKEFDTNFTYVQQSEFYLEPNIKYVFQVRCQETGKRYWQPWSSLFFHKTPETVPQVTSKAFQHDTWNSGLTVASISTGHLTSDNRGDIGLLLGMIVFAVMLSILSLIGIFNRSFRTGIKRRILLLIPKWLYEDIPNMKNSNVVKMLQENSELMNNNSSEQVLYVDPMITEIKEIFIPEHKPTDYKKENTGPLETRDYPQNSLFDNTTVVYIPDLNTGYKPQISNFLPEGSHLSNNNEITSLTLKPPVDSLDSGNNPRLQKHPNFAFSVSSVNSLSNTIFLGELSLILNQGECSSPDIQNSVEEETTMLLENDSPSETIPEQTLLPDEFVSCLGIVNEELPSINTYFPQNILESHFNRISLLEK
In short: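 IC50 values were fitted with a 4-parameter Hill equation to luciferase signal, scaled between IL-23-only wells (0% inhibition) and 30 μM reference inhibitor (100%). The readout was a STAT-inducible reporter in IL-23R/IL-12Rβ1 HEK293 cells, stimulated with added 10 ng/mL IL-23 (EC90) for 5 h at 37° C and developed with BioGlo.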

[1] = test system: IL-23-stimulated phosphorylated STAT3 in peripheral blood mononuclear cells (PBMCs); test: PBMC pSTAT3 Assay; format: cell-based; conditions: PBMCs from healthy donors; 30 min preincubation with peptide; IL-23 5 ng/mL for 30 min; phospho-STAT3 by MSD
In short: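 Phospho-STAT3 quantified by Meso Scale assay in lysates of PBMCs exposed to IL-23 (5 ng/mL, 30 min, 37 °C) after 30 min peptide pretreatment. Cells were cryopreserved donor PBMCs activated 4 days with anti-CD3 plus IL-1β (100 ng/mL) and starved ~4 h; IC50 reported.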

SMILES | IC50 (IL-23R) [µM] | IC50 [1] [µM]
CC(=O)NCCCC[C@@H]1NC(=O)[C@H](Cc2c[nH]c3c(C)cccc23)NC(=O)[C@H]([C@@H](C)O)NC(=O)[C@H](CC(N)=O)NC(=O)[C@@H](NC(=O)[C@@H](CCCNC(=N)N)NC(=O)COCCOCCNC(=O)COCCOCCNC(=O)CC[C@H](NC(=O)CCCCCCCCCCCCCCCCC(=O)O)C(=O)O)C(C)(C)SSC(C)(C)[C@@H](C(=O)N[C@@H](Cc2ccc(OCCCCC[N+](C)(C)C)cc2)C(=O)N[C@@H](Cc2ccc3ccccc3c2)C(=O)NC2(C(=O)N[C@@H](CCC(=O)O)C(=O)N[C@@H](CC(N)=O)C(=O)N[C@@H](Cc3cccnc3)C(=O)N(C)CC(N)=O)CCOCC2)NC1=O [compound 83, HOC18gEPEG2PEG2CO-r-Pen(3)-N-T-7MeW-K(Ac)-Pen(3)-TMAPF-2Nal-THP-E-N-3Pya-Sar-CONH2] ({C18 diacid-γGlu-AEEA-AEEA}-[dR][Pen]NT[Trp(7-Me)]K(Ac)[Pen]Y(X1)[2Nal][Thp]EN[3Pal][Sar]-NH2; disulfide 2-7) | < 0.05 | < 0.0005
CC(=O)N(C)CCCC[C@@H]1NC(=O)[C@H](Cc2c[nH]c3c(C)cccc23)NC(=O)[C@H]([C@@H](C)O)NC(=O)[C@H](CC(=O)N(C)C)NC(=O)[C@@H](NC(=O)CCOCCOCC[N+](C)(C)C)C(C)(C)SSC(C)(C)[C@@H](C(=O)N[C@@H](Cc2ccc(OCCOCCOCC[N+](C)(C)C)cc2)C(=O)N[C@@H](Cc2ccc3ccccc3c2)C(=O)NC2(C(=O)N[C@@H](CCCCNC(=O)COCCOCCNC(=O)COCCOCCNC(=O)CC[C@H](NC(=O)CCCCCCCCCCCCCCCCC(=O)O)C(=O)O)C(=O)N[C@@H](CC(N)=O)C(=O)N[C@@H](Cc3cccnc3)C(=O)N(C)CC(=O)N(C)C)CCOCC2)NC1=O [compound 156, cPEG3aCO-Pen(3)-N(N(Me)2)-T-7MeW-K(NMeAc)-Pen(3)-APEG3F-2Nal-THP-K(PEG2PEG2gEC18OH)-N-3Pya-Sar-CON(Me)2] ({Me3N+(CH2)2O(CH2)2O(CH2)2CO}-[Pen]D(NMe2)T[Trp(7-Me)][Lys(Me)](Ac)[Pen]Y(CH2CH2OCH2CH2OCH2CH2NMe3+)[2Nal][Thp]K([AEEA-AEEA-γGlu-C18 diacid])N[3Pal][Sar]-NMe2; disulfide 1-6) | 0.05 to 0.5 | < 0.0005
Cc1cccc2c(C[C@@H]3NC(=O)[C@H]([C@@H](C)O)NC(=O)[C@H](CC(=O)N(C)C)NC(=O)[C@@H](NC(=O)COCCOCCNC(=O)COCCOCCNC(=O)CC[C@H](NC(=O)CCCCCCCCCCCCCCCCC(=O)O)C(=O)O)C(C)(C)SSC[C@@H](C(=O)N[C@@H](Cc4ccc(OCCN)cc4)C(=O)N[C@@H](Cc4ccc5ccccc5c4)C(=O)NC4(C(=O)N[C@@H](CCN(C)C(=O)CCC(=O)N[C@H](CC(=O)O)C[N+](C)(C)C)C(=O)N[C@@H](CC(N)=O)C(=O)N[C@@H](Cc5cccnc5)C(=O)N(C)CC(=O)N(C)C)CCOCC4)NC(=O)[C@H](CCN(C)C(=O)CCC(=O)N[C@H](CC(=O)O)C[N+](C)(C)C)NC3=O)c[nH]c12 [compound 138, HOC18gEPEG2PEG2CO-Pen(3)-N(N(Me)2)-T-7MeW-Dab(NMecarn)-Pen(3)-AEF-2Nal-THP-Dab(NMecarn)-N-3Pya-Sar-CON(Me)2] ({C18 diacid-γGlu-AEEA-AEEA}-[Pen]D(NMe2)T[Trp(7-Me)][X6]([Suc-X2])C[AEF][2Nal][Thp][X6]([Suc-X2])N[3Pal][Sar]-NMe2; disulfide 1-6) | < 0.05 | < 0.0005
CC(=O)NCCCC[C@@H]1NC(=O)[C@H](Cc2c[nH]c3c(C)cccc23)NC(=O)[C@H]([C@@H](C)O)NC(=O)[C@H](CC(N)=O)NC(=O)[C@@H](NC(C)=O)C(C)(C)SSC(C)(C)[C@@H](C(=O)N[C@@H](Cc2ccc(OCCNC(=O)COCCOCCNC(=O)COCCOCCNC(=O)CC[C@H](NC(=O)CCCCCCCCCCCCCCCCC(=O)O)C(=O)O)cc2)C(=O)N[C@@H](Cc2ccc3ccccc3c2)C(=O)NC2(C(=O)N[C@@H](CCCCNC(=O)CCC(=O)N[C@H](CC(=O)O)C[N+](C)(C)C)C(=O)N[C@@H](CC(N)=O)C(=O)N[C@@H](Cc3cccnc3)C(=O)N(C)CC(N)=O)CCOCC2)NC1=O [compound 8, MeCO-Pen(3)-N-T-7MeW-K(Ac)-Pen(3)-AEF(PEG2PEG2gEC18OH)-2Nal-THP-K(d)-N-3Pya-Sar-CONH2] (Ac-[Pen]NT[Trp(7-Me)]K(Ac)[Pen][AEF]([AEEA-AEEA-γGlu-C18 diacid])[2Nal][Thp]K([Suc-X2])N[3Pal][Sar]-NH2; disulfide 1-6) | < 0.05 | < 0.0005
